target: T1, human Npt2a (Homo sapiens, UniProt Q06495); assay: Npt2a activity cell based assay, membrane potential dye, CHO T-REx hNpt2a cells; conditions: doxycycline-induced, depolarization by sodium phosphate influx, average or median values if tested more than once
T1 construct: expressed in transfected cells
T1 sequence (Q06495 1-639): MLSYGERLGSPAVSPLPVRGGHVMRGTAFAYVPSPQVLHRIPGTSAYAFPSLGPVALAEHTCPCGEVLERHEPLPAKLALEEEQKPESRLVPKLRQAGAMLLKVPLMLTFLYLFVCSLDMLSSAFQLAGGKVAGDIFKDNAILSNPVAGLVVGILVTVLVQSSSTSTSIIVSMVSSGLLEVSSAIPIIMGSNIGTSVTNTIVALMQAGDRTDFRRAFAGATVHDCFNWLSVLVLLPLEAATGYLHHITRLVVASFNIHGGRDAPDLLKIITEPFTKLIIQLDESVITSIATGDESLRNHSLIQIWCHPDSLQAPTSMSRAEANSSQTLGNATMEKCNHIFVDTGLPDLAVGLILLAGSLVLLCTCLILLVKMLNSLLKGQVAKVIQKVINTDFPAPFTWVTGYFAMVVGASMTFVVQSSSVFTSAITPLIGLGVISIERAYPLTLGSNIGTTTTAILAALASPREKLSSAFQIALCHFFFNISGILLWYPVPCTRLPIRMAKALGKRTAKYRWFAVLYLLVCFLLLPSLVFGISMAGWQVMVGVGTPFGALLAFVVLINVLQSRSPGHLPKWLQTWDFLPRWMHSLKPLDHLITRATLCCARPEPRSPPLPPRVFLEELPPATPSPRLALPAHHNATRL
Procedure, shortened: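 Cells were doxycycline-induced CHO T-REx hNpt2a, dye-loaded and pretreated 5 min at RT with 1 nM–50 μM compound in Na-free pH 7.4 buffer. IC50 was fit to the post/pre-trigger fluorescence ratio.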

First: Cc1c(-c2ccc(F)cc2)nn(CC2CC2)c1Nc1cc(-n2nc3c(c2C)C(O)(C(F)(F)F)CC3)ncn1 (racemic) [Example 403, (±)-2-(6-{[1-(cyclopropylmethyl)-3-(4-fluorophenyl)-4-methyl-1H-pyrazol-5-yl]amino}pyrimidin-4-yl)-3-methyl-4-(trifluoromethyl)-2,4,5,6-tetrahydrocyclopenta[c]pyrazol-4-ol]
Second: Cc1nn(-c2cc(Nc3c(C)c(-c4ccc(F)cc4)nn3CC3CC3)ncn2)c(C)c1Br [Example 406, 6-(4-bromo-3,5-dimethyl-1H-pyrazol-1-yl)-N-[1-(cyclopropylmethyl)-3-(4-fluorophenyl)-4-methyl-1H-pyrazol-5-yl]pyrimidin-4-amine]
The IC50 of the first is 4-fold higher: 12 nM for the first, 3 nM for the second.

First: Cc1cc(C)n(-c2cc(Nc3c(C)c(-c4ccc(F)cn4)nn3CC3CC3)ncn2)n1 [Example 421, N-[1-(cyclopropylmethyl)-3-(5-fluoropyridin-2-yl)-4-methyl-1H-pyrazol-5-yl]-6-(3,5-dimethyl-1H-pyrazol-1-yl)pyrimidin-4-amine]
Second: Cc1cc(C)n(-c2cc(Nc3c(C)c(-c4ccc(F)cc4)nn3CC3CC3)ncn2)n1 [Example 171, N-[1-(cyclopropylmethyl)-3-(4-fluorophenyl)-4-methyl-1H-pyrazol-5-yl]-6-(3,5-dimethyl-1H-pyrazol-1-yl)pyrimidin-4-amine]
The IC50 of the first is 34-fold higher: 410 nM for the first, 12 nM for the second. The second is the more potent here.

First: Cc1nn(-c2cc(Nc3c(C)c(-c4ccc(F)cc4)nn3CC3CC3)ncn2)c(C)c1C(O)C1CC1 (single isomer, unassigned) [Example 420, cyclopropyl[1-(6-{[1-(cyclopropylmethyl)-3-(4-fluorophenyl)-4-methyl-1H-pyrazol-5-yl]amino}pyrimidin-4-yl)-3,5-dimethyl-1H-pyrazol-4-yl]methanol]
Second: COC(=O)Nc1c(C)nn(-c2cc(Nc3c(C)c(-c4ccc(F)cc4)nn3CC3CC3)ncn2)c1C [Example 556, methyl [1-(6-{[1-(cyclopropylmethyl)-3-(4-fluorophenyl)-4-methyl-1H-pyrazol-5-yl]amino}pyrimidin-4-yl)-3,5-dimethyl-1H-pyrazol-4-yl]carbamate]
The IC50 of the first is 34-fold lower: 24 nM for the first, 810 nM for the second.

Compared with `CNc1ccc(-c2nn(CC3CC3)c(Nc3cc(-n4nc(C)c(Cl)c4C)ncn3)c2C)cc1` [Example 417, 6-(4-chloro-3,5-dimethyl-1H-pyrazol-1-yl)-N-{1-(cyclopropylmethyl)-4-methyl-3-[4-(methylamino)phenyl]-1H-pyrazol-5-yl}pyrimidin-4-amine], `Cc1nn(-c2cc(Nc3c(C)c(-c4ccc(F)cc4)nn3CC3CC3)ncn2)c(C(F)F)c1Cl` [Example 176, 6-[4-chloro-5-(difluoromethyl)-3-methyl-1H-pyrazol-1-yl]-N-[1-(cyclopropylmethyl)-3-(4-fluorophenyl)-4-methyl-1H-pyrazol-5-yl]pyrimidin-4-amine] is 2.1-fold lower in IC50: 27 nM for the first, 13 nM for the second. The second is the more potent here.

Compared with `Cc1ccc(-c2nn(C)c(Nc3cc(-n4nc(C)c(C(F)(F)F)c4C)ncn3)c2C)cn1` [Example 530, N-[1,4-dimethyl-3-(6-methylpyridin-3-yl)-1H-pyrazol-5-yl]-6-[3,5-dimethyl-4-(trifluoromethyl)-1H-pyrazol-1-yl]pyrimidin-4-amine], `Cc1cc(C)n(-c2cc(Nc3c(C)c(-c4ccc(C(F)(F)F)nc4)nn3CC3CC3)ncn2)n1` [Example 533, N-{1-(cyclopropylmethyl)-4-methyl-3-[6-(trifluoromethyl)pyridin-3-yl]-1H-pyrazol-5-yl}-6-(3,5-dimethyl-1H-pyrazol-1-yl)pyrimidin-4-amine] is 61-fold higher in IC50: 33 nM for the first, 2000 nM for the second. The first is the more potent here.

Going from `Cc1cc(C)n(-c2cc(Nc3c(C)c(-c4ccc(OC(F)F)cc4)nn3CC3CC3)ncn2)n1` [Example 476, N-{1-(cyclopropylmethyl)-3-[4-(difluoromethoxy)phenyl]-4-methyl-1H-pyrazol-5-yl}-6-(3,5-dimethyl-1H-pyrazol-1-yl)pyrimidin-4-amine] to `CSc1cc(-c2nn(CC3CC3)c(Nc3cc(-n4nc(C)cc4C)ncn3)c2C)ccc1F` [Example 430, N-{1-(cyclopropylmethyl)-3-[4-fluoro-3-(methylsulfanyl)phenyl]-4-methyl-1H-pyrazol-5-yl}-6-(3,5-dimethyl-1H-pyrazol-1-yl)pyrimidin-4-amine], the IC50 rises from 29 nM to 45 nM (1.6-fold).

Compared with `CCc1c(Nc2cc(-n3nc(C)cc3C(F)F)ncn2)nn(C)c1-c1ccc(C#N)cc1` [Example 217, 4-[3-({6-[5-(difluoromethyl)-3-methyl-1H-pyrazol-1-yl]pyrimidin-4-yl}amino)-4-ethyl-1-methyl-1H-pyrazol-5-yl]benzonitrile], `CCc1c(Nc2cc(-n3nc(C)cc3C)ncn2)nn(C)c1-c1ccc(F)cc1` [Example 1, 6-(3,5-dimethyl-1H-pyrazol-1-yl)-N-[4-ethyl-5-(4-fluorophenyl)-1-methyl-1H-pyrazol-3-yl]pyrimidin-4-amine] is 2.2-fold higher in IC50: 2 nM for the first, 4.48 nM for the second.

Going from `Cc1nn(-c2cc(Nc3nn(C)c(-c4ccc(C#N)cc4)c3C)ncn2)c(C(F)F)c1Cl` [Example 235, 4-[3-({6-[4-chloro-5-(difluoromethyl)-3-methyl-1H-pyrazol-1-yl]pyrimidin-4-yl}amino)-1,4-dimethyl-1H-pyrazol-5-yl]benzonitrile] to `Cc1cc(C)n(-c2cc(Nc3nn(C)c(-c4ccc(Cl)cc4)c3C)ncn2)n1` [Example 355, N-[5-(4-chlorophenyl)-1,4-dimethyl-1H-pyrazol-3-yl]-6-(3,5-dimethyl-1H-pyrazol-1-yl)pyrimidin-4-amine], the IC50 rises from 3 nM to 20 nM (6.7-fold).

Compared with `Cc1cc(C)n(-c2cc(Nc3nn(CC4CC4)c(-c4ccc(F)cc4)c3C)ncn2)n1` [Example 169, N-[1-(cyclopropylmethyl)-5-(4-fluorophenyl)-4-methyl-1H-pyrazol-3-yl]-6-(3,5-dimethyl-1H-pyrazol-1-yl)pyrimidin-4-amine], `CCc1nn(C)c(Nc2cc(-n3nc(C)cc3C)ncn2)c1-c1ccc(F)cc1` [Example 35, 6-(3,5-dimethyl-1H-pyrazol-1-yl)-N-[3-ethyl-4-(4-fluorophenyl)-1-methyl-1H-pyrazol-5-yl]pyrimidin-4-amine] is 2-fold higher in IC50: 690 nM for the first, 1400 nM for the second. The first is the more potent here.

Going from `Cc1cc(C(F)F)n(-c2cc(Nc3n[nH]c(-c4ccc(F)cc4)c3C)ncn2)n1` [Example 66, 6-[5-(difluoromethyl)-3-methyl-1H-pyrazol-1-yl]-N-[5-(4-fluorophenyl)-4-methyl-1H-pyrazol-3-yl]pyrimidin-4-amine] to `Cc1nn(-c2cc(Nc3nn(C)c(-c4ccc(F)cc4)c3C)ncn2)c(C)c1C1(O)CC1` [Example 138, 1-[1-(6-{[5-(4-fluorophenyl)-1,4-dimethyl-1H-pyrazol-3-yl]amino}pyrimidin-4-yl)-3,5-dimethyl-1H-pyrazol-4-yl]cyclopropanol], the IC50 rises from 87 nM to 150 nM (1.7-fold).

First: COC(=O)c1ccc(-c2c(C)c(Nc3cc(-n4nc(C)cc4C)ncn3)nn2C)cc1 [Example 122, methyl 4-(3-{[6-(3,5-dimethyl-1H-pyrazol-1-yl)pyrimidin-4-yl]amino}-1,4-dimethyl-1H-pyrazol-5-yl)benzoate]
Second: Cc1nn(-c2cc(Nc3c(C)c(-c4ccc(F)cc4F)nn3CC3CC3)ncn2)c(C)c1C(C)(C)O [Example 368, 2-[1-(6-{[1-(cyclopropylmethyl)-3-(2,4-difluorophenyl)-4-methyl-1H-pyrazol-5-yl]amino}pyrimidin-4-yl)-3,5-dimethyl-1H-pyrazol-4-yl]propan-2-ol]
The IC50 of the first is 3.6-fold higher: 25 nM for the first, 7 nM for the second. The second is the more potent here.

Source: patent US11208400B2, “Substituted 6-(1H-pyrazol-1-yl)pyrimidin-4-amine derivatives and uses thereof” (Bayer Aktiengesellschaft, priority 2016, dated 2021)
